Reference: patent US9055743B2, “Alpha, beta-unsaturated imines” (BAYER INTELLECTUAL PROPERTY GMBH, priority 2010, dated 2015)

Tests used:
Assay type in all cases: in vivo
[1] = test system: cat fleas (Ctenocephalides felis, fully sensitive laboratory strain); assay: Contact test against fleas in-vitro (CTECFE contact); conditions: for activity against cat fleas: 500 g/ha, after 48 h
Method: Contact Test Against Fleas In-Vitro (CTECFE Contact)
An amount of 0.9 mg of active compound is weighed out, and 1 ml of acetone is added.
Of this acetone solution, either […] are transferred directly into roll-necked test tubes or an aliquot is diluted with 4 parts of acetone 1:5. For its part, 250 μl of this dilution are pipetted into roll-necked test tubes, or the dilution is diluted further, etc., until the desired number of dilution steps is reached.
The roll-necked test tubes containing the solution of the active compound in acetone are immediately coated in a fume cupboard by 2 h of swing rotation at 30 rpm. After evaporation of the solvent, the active compound contained in the acetone gives, at the highest concentration tested, an active compound content of 500 g/ha (or 500 μg/dm^2) on the surface of the test tube.
10-20 Adult cat fleas (Ctenocephalides felis, fully sensitive laboratory strain) anesthetized with CO2 are transferred into the test tubes prepared in this manner, and the test tubes are closed with a plastic roll-necked lid provided with fine holes.
The test tubes are stored vertically at room temperature and humidity for 24 or 48 h. After 24 and 48 h, the activity of the active compound applied is determined by comparison with an acetone-treated control. Here, an observed normal activity for all fleas corresponds to 0% activity, a strongly restricted or uncoordinated (knock-down) movement or death of all fleas corresponds to 100% activity.

[2] = test system: Anopheles gambiae (homocygus kdr); assay: Anopheles test (ANPHGB surface treatment); conditions: for knock-down activity: 100 mg/m^2, two hours after contact, exposition 30 minutes; for mortality at 100 mg/m2: Anopheles gambiae, read-out: activity (mortality in %)
Method: Anopheles Test (ANPHGB Surface Treatment) Solvent: Acetone
(§1) To produce a suitable preparation of active compound, the active compound is dissolved in acetone (2 mg/ml). The active compound preparation is pipetted onto a glazed tile and, after drying, adult mosquitoes of the species Anopheles gambiae (homocygus kdr) are placed onto the treated tile. The exposition time is 30 minutes.
(§2) Two hours after contact to the treated surface, the knock-down proportion of the test animals in % is determined.
24 hours after contact to the treated surface, the mortality in % is determined. Here, 100% means that all mosquitoes have been killed; 0% means that none of the mosquitoes has been killed.

[3] = test system: larvae of the mustard beetle (Phaedon cochleariae); assay: Phaedon test (PHAECO spray treatment); conditions: for activity (beetle larvae killed) / pest or weed control at 500 g/ha: 500 g/ha, spray, after 7 days; for pest or weed control at 500 g/ha: Phaedon cochleariae, 168 h, read-out: activity (beetle larvae killed)
Method: Phaedon Test ([…] Spray Treatment) Solvents: 78.0 parts by weight of acetone • • 1.5 parts by weight of dimethylformamide Emulsifier: 0.5 part by weight of alkylaryl polyglycol ether To produce a suitable preparation of active compound, 1 part by weight of active compound is mixed with the stated amounts of solvents and emulsifiers, and the concentrate is diluted with emulsifier-containing water to the desired concentration. Discs of Chinese cabbage leaves (Brassica pekinensis) are sprayed with an active compound preparation of the desired concentration and, after drying, populated with larvae of the mustard beetle (Phaedon cochleariae).

[4] = test system: caterpillars of the army worm (Spodoptera frugiperda); assay: Spodoptera frugiperda test (SPODFR spray treatment); conditions: for activity (caterpillars killed) / pest or weed control at 500 g/ha: 500 g/ha, spray, after 7 days; for pest or weed control at 500 g/ha: Spodoptera frugiperda, 168 h, read-out: activity (caterpillars killed)
Method: Spodoptera frugiperda Test (SPODFR Spray Treatment) Solvents: 78.0 parts by weight of acetone • • 1.5 parts by weight of dimethylformamide Emulsifier: 0.5 part by weight of alkylaryl polyglycol ether
(§3) To produce a suitable preparation of active compound, 1 part by weight of active compound is mixed with the stated amounts of solvents and emulsifier, and the concentrate is diluted with emulsifier-containing water to the desired concentration.
Discs of maize leaves (Zea mays) are sprayed with an active compound preparation of the desired concentration and, after drying, populated with caterpillars of the army worm (Spodoptera frugiperda) besetzt.
After 7 days, the activity in % is determined. 100% means that all caterpillars have been killed; 0% means that none of the caterpillars have been killed.

[5] = test system: greenhouse red spider mite (Tetranychus urticae); assay: Tetranychus test; OP-resistant (TETRUR spray treatment); conditions: for activity (spider mites killed) / pest or weed control at 500 g/ha: 500 g/ha, spray, after 6 days; for pest or weed control at 500 g/ha: Tetranychus urticae, 144 h, read-out: activity (spider mites killed)
Method: Tetranychus Test; OP-Resistant (TETRUR Spray Treatment) Solvents: 78.0 parts by weight of acetone • • 1.5 parts by weight of dimethylformamide Emulsifier: 0.5 part by weight of alkylaryl polyglycol ether
as §3
Discs of bean leaves (Phaseolus vulgaris) infested by all stages of the greenhouse red spider mite (Tetranychus urticae) are sprayed with an active compound preparation of the desired concentration.
After 6 days, the activity in % is determined. 100% means that all spider mites have been killed; 0% means that none of the spider mites have been killed.

[6] = test system: green peach aphid (Myzus persicae); assay: Myzus test (MYZUPE spray treatment); conditions: for activity (aphids killed) / pest or weed control at 500 g/ha: 500 g/ha, spray, after 6 days; for pest or weed control at 500 g/ha: Myzus persicae, 144 h, read-out: activity (aphids killed)
Method: Myzus Test (MYZUPE Spray Treatment) Solvents: 78 parts by weight of acetone • • 1.5 parts by weight of dimethylformamide Emulsifier: 0.5 part by weight of alkylaryl polyglycol ether
as §3
Discs of Chinese cabbage leaves (Brassica pekinensis) which are infested by all stages of the green peach aphid (Myzus persicae) are sprayed with an active compound preparation of the desired concentration.
After 6 days, the activity in % is determined. 100% means that all aphids have been killed; 0% means that none of the aphids have been killed.

Aedes aegypti = assay: Aedes test (AEDSAE surface treatment); conditions: for knock-down activity: 100 mg/m^2, two hours after contact, exposition 30 minutes
Method: Aedes Test (AEDSAE Surface Treatment)
as §1, with “Aedes aegypti” for “Anopheles gambiae (homocygus kdr)”
as §2
24 hours after contact to the treated surface, the mortality in % is determined Here, 100% means that all mosquitoes have been killed; 0% means that none of the mosquitoes has been killed.

Boophilus microplus = Boophilus microplus test (BOOPMI injection); conditions: 20 μg/animal, injection into the abdomen, after 7 days
Method: Boophilus microplus Test (BOOPMI Injection)
(§4) Solvent: Dimethyl Sulphoxide
To produce a suitable preparation of active compound, 10 mg of active compound are mixed with 0.5 ml of solvent and the concentrate is diluted with solvent to the desired concentration. The solution of active compound is injected into the abdomen (Boophilus microplus), and the animals are transferred into dishes and kept in a climatized room. The activity is assessed by […] of fertile eggs.
After 7 days, the effect in % is determined 100% means that none of the ticks has laid any fertile eggs.

Ctenocephalides felis = Ctenocephalides felis oral test (CTECFE); conditions: 100 ppm in citrated cattle blood, after two days
Method: Ctenocephalides Felis Oral Test (CTECFE)
Solvent: 1 Part by Weight of Dimethyl Sulphoxide
To produce a suitable preparation of active compound, 10 mg of active compound are mixed with 0.5 ml of dimethyl sulphoxide. Part of the concentrate is diluted with citrated cattle blood, and the desired concentration is prepared.
About 20 unfed adult fleas (Ctenocephalides felis) are placed into a chamber which is closed at the top and bottom with gauze. A metal cylinder whose bottom end is closed with parafilm is placed onto the chamber. The cylinder contains the blood/active compound preparation, which can be taken up by the fleas through the parafilm membrane. After two days, the kill in % is determined 100% means that all fleas have been killed; 0% means that none of the fleas have been killed.

Lucilia cuprina larvae = assay: Lucilia cuprina test (LUCICU); conditions: 100 ppm, after 2 days
Method: Lucilia cuprina Test (LUCICU)
as §4
To produce a suitable preparation of active compound, 10 mg of active compound are mixed with 0.5 ml of dimethyl sulphoxide and the concentrate is diluted with water to the desired concentration. Vessels containing horsemeat treated with the active compound preparation of the desired concentration are populated with about 20 Lucilia cuprina larvae.
After 2 days, the kill in % is determined. 100% means that all larvae have been killed; 0% means that none of the larvae have been killed.

[7] = active compound concentration 500 g/ha
[8] = active compound concentration 100 g/ha

SMILES | activity against cat fleas [1] [%] | knock-down activity [2] [%] | activity (beetle larvae killed) [3] [%] | activity (caterpillars killed) [4] [%] | activity (spider mites killed) [5] [%] | activity (aphids killed) [6] [%] | activity (100% = none of the ticks has laid any fertile eggs) (Boophilus microplus) [%] | activity (kill in %) (Ctenocephalides felis) [%] | activity (kill in %) (Lucilia cuprina larvae) [%] | further results
CCc1ccc2c(c1)CCC(=CSc1ccc(F)cc1)C2=Nc1ccc(C)cc1 [Example 1-84] | 100 | 100 | 100 | 100 | 100 | 100 |  |  |  | knock-down activity (Aedes aegypti): 100%
Cc1ccc(N=C2C(=CSc3ccccc3)C(c3ccccc3)c3ccccc32)cc1 (mixture of isomers) [Example 1-20] | 100 |  | 100 | 100 | 100 | 100 | 100 |  |  | 
CCc1ccc(N=C2C(=CSc3ccc(F)cc3)CCc3ccccc32)cc1 [Example 1-39] | 100 | 100 | 100 | 100 | 80 | 100 |  |  |  | knock-down activity (Aedes aegypti): 100%
Fc1ccc(N=C2/C(=C/Sc3ccccc3)CCc3ccccc32)cc1 [Example 1-3, 4-Fluoro-N-[(2E)-2-[(phenylsulphanyl)methylene]-3,4-dihydronaphthalen-1(2H)-ylidene]aniline] | 100 | 80 |  |  |  |  | 100 | 90 | 100 | mortality at 100 mg/m2 [2]: 100%; pest or weed control at 500 g/ha [3]: 100%; pest or weed control at 500 g/ha [4]: 100%; pest or weed control at 500 g/ha [5]: 100%; pest or weed control at 500 g/ha [6]: 100%
Cc1ccc(N=C2C(=CSc3ccc(F)cc3)C(C)c3cc(C)ccc32)c(C)c1 (mixture of isomers) [Example 1-85] | 100 | 100 | 100 | 100 | 100 | 100 | 100 | 90 | 100 | 
COc1ccc2c(c1)CCC(=CSc1ccc(F)cc1)C2=Nc1ccc(C)cc1 [Example 1-17] | 100 | 95 | 100 | 100 | 100 | 100 |  |  |  | knock-down activity (Aedes aegypti): 100%
Cc1ccc(N=C2C(=CSc3cc(F)cc(F)c3)CCc3ccccc32)cc1 [Example 1-81] | 100 | 100 | 100 | 100 | 100 | 100 | 100 | 100 | 100 | 
Cc1ccc(N=C2C(=CSc3ccc(F)cc3)C(C)(C)c3ccccc32)cc1 [Example 1-21] | 100 |  |  |  |  |  |  |  |  | Kill rate in % after 2 days ([1]; active compound concentration 0.032 g/ha): 100%; Kill rate in % after 2 days ([1]; active compound concentration 0.16 g/ha): 100%; mortality at 100 mg/m2 [2]: 100%; Kill rate in % after 24 hours ([2]; active compound concentration 8 g/ha): 100%; pest or weed control at 500 g/ha [3]: 100%; Kill rate in % after 7 days [3, 7]: 100%; pest or weed control at 500 g/ha [4]: 100%; Kill rate in % after 7 days [4, 8]: 83%; pest or weed control at 500 g/ha [5]: 100%; Kill rate in % after 6 days [5, 8]: 100%; Kill rate in % after 6 days [5, 7]: 100%; pest or weed control at 500 g/ha [6]: 100%; Kill rate in % after 6 days [6, 8]: 100%; Kill rate in % after 6 days [6, 7]: 100%; mortality at 100 mg/m2 (Aedes aegypti; Aedes aegypti, read-out: activity (mortality in %)): 100%
Cc1ccc(N=C2C(=CSc3ccc(C(F)(F)F)cc3)CCc3ccccc32)cc1 [Example 1-82] | 100 | 100 | 100 | 100 | 100 | 100 | 100 | 100 | 100 | 
Cc1ccc(N=C2C(=CSc3ccc(F)cc3)C(C)c3cc(F)ccc32)cc1C (mixture of isomers) [Example 1-63] | 100 |  | 100 | 100 | 100 | 100 | 100 | 90 |  | 
CC1C(=CSc2ccccc2)C(=Nc2ccc(F)cc2)c2ccccc21 (mixture of isomers) [Example 1-6] | 100 |  | 100 | 100 | 100 | 100 | 100 | 100 | 100 | 
